Structures can show the parent of a compound that is named as a salt.
Experiments:
mexB (PA) strain = test: Combinational effect with antibacterial agent against Pseudomonas aeruginosa (Test Examples 2 and 4): mexB (PA) strain with LVFX, TC or AZT at 1/4 MIC, EC99; type: cell-based; conditions: for EC99, mexB (PA), AZT / EC99, mexB (PA), LVFX / EC99, mexB (PA), TC: Table 52, Test Example 2, 16 to 20 hours culture, OD595; for EC99, mexB (PA), AZT / EC99, combinational effect with AZT, mexB (PA): combined with AZT at 1/4 MIC; for EC99, mexB (PA), LVFX / EC99, combinational effect with LVFX, mexB (PA): combined with LVFX at 1/4 MIC; for EC99, mexB (PA), TC / EC99, combinational effect with TC, mexB (PA): combined with TC at 1/4 MIC; for EC99, combinational effect with AZT, mexB (PA) / EC99, combinational effect with LVFX, mexB (PA) / EC99, combinational effect with TC, mexB (PA): mexB (PA) strain, Test Example 4
Procedure, shortened: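 P. aeruginosa mexB (PA) strain, lacking MexCD-OprJ, MexEF-OprN and MexXY and overexpressing MexAB-OprM, grown 16–20 h in CAMHB (10^4–5 CFU/well) with LVFX, TC or AZT at ¼ MIC plus test compound at 0–800 μM. Growth read as OD595; EC99 is the lowest compound concentration giving ≥99% growth inhibition.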

S-3769 strain = test: Combinational effect with antibacterial agent against Pseudomonas aeruginosa (Test Examples 2 and 4): S-3769 strain with AMK or GM at 1/4 MIC, EC99; type: cell-based; conditions: for EC99, S-3769 strain, AMK / EC99, S-3769 strain, GM: Table 52, Test Example 2, 16 to 20 hours culture, OD595; for EC99, S-3769 strain, AMK / EC99, combinational effect with AMK, S-3769 strain: combined with AMK at 1/4 MIC; for EC99, S-3769 strain, GM / EC99, combinational effect with GM, S-3769 strain: combined with GM at 1/4 MIC; for EC99, combinational effect with AMK, S-3769 strain / EC99, combinational effect with GM, S-3769 strain: Test Example 4
Procedure, shortened: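 P. aeruginosa S-3769 (clinical isolate, MexY overexpressed) grown 16–20 h in CAMHB, 10^4 to 5 CFU/well, with AMK or GM at ¼ MIC plus test compound 0–800 μM. Growth read as OD595; EC99 is the lowest compound concentration giving ≥99% growth inhibition.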

SMILES | EC99, mexB (PA), AZT (mexB (PA) strain) | EC99, mexB (PA), LVFX (mexB (PA) strain) | EC99, mexB (PA), TC (mexB (PA) strain) | EC99, S-3769 strain, AMK (S-3769 strain) | EC99, S-3769 strain, GM (S-3769 strain) | EC99, combinational effect with AZT, mexB (PA) (mexB (PA) strain) | EC99, combinational effect with LVFX, mexB (PA) (mexB (PA) strain) | EC99, combinational effect with TC, mexB (PA) (mexB (PA) strain) | EC99, combinational effect with AMK, S-3769 strain (S-3769 strain) | EC99, combinational effect with GM, S-3769 strain (S-3769 strain)
CCOc1cccc(F)c1CN1CCN(C(=O)[C@H](N)C2CCN(CCc3cc(Cl)ccc3-c3cnccc3Cl)CC2)CC1 [Example 91, Hydrobromide of (R)-2-amino-2-(1-(5-chloro-2-(4-chloropyridin-3-yl)phenethyl)piperidin-4-yl)-1-(4-(2-ethoxy-6-fluorobenzyl)piperazin-1-yl) ethan-1-one] | B (25 μM<EC99≤100 μM) | C (100 μM<EC99) | B (25 μM<EC99≤100 μM) | B (25 μM<EC99≤100 μM) | B (25 μM<EC99≤100 μM) | – | – | – | – | –
CCOc1cccc(F)c1CN1CCN(C(=O)[C@H](N)C2CCN(CCc3cc(Cl)ccc3-c3ccccc3F)CC2)CC1 [Example 139, hydrochloride of (R)-2-amino-2-(1-(2-(4-chloro-2′-fluoro-[1,1′-biphenyl]-2-yl)ethyl)piperidin-4-yl)-1-(4-(2-ethoxy-6-fluorobenzyl)piperazin-1-yl)ethan-1-one] | A (12.5 μM<EC99≤25 μM) | A (12.5 μM<EC99≤25 μM) | A (12.5 μM<EC99≤25 μM) | S (EC99≤12.5 μM) | S (EC99≤12.5 μM) | – | – | – | – | –
CCSc1ccc(O)cc1CN1CCN(C(=O)[C@H](N)C2CCN(CCc3cc(Cl)ccc3-c3cc(O)ccc3F)CC2)CC1 [Example 621, (R)-2-amino-2-(1-(2-(4-chloro-2′-fluoro-5′-hydroxy-[1,1′-biphenyl]-2-yl)ethyl)piperidin-4-yl)-1-(4-(2-(ethylthio)-5-hydroxybenzyl)piperazin-1-yl)ethan-1-one] | – | – | – | – | – | S (EC99≤12.5 μM) | S (EC99≤12.5 μM) | S (EC99≤12.5 μM) | S (EC99≤12.5 μM) | S (EC99≤12.5 μM)
CCOc1cccc(F)c1CN1CCN(C(=O)[C@H](N)C2CCN(CCc3cc(Cl)ccc3-c3ccc(C)cc3)CC2)CC1 [Example 69, Hydrobromide of (R)-2-amino-2-(1-(2-(4-chloro-4′-methyl-[1,1′-biphenyl]-2-yl)ethyl)piperidin-4-yl)-1-(4-(2-ethoxy-6-fluorobenzyl)piperazin-1-yl)ethan-1-one] | C (100 μM<EC99) | C (100 μM<EC99) | B (25 μM<EC99≤100 μM) | S (EC99≤12.5 μM) | S (EC99≤12.5 μM) | – | – | – | – | –
CCOc1c(Cl)ccc(F)c1CN1CCN(C(=O)[C@H](N)C2CCN(CCc3cc(Cl)ccc3-c3ccccc3)CC2)CC1 [Example 9, Hydrobromide of (R)-2-amino-1-(4-(3-chloro-2-ethoxy-6-fluorobenzyl)piperazin-1-yl)-2-(1-(2-(4-chloro-[1,1′-biphenyl]-2-yl)ethyl)piperidin-4-yl) ethan-1-one] | B (25 μM<EC99≤100 μM) | C (100 μM<EC99) | B (25 μM<EC99≤100 μM) | A (12.5 μM<EC99≤25 μM) | A (12.5 μM<EC99≤25 μM) | – | – | – | – | –
N[C@@H](C(=O)N1CCN(CC2CCCCC2)CC1)C1CCN(CCc2cc(Cl)ccc2-c2ccccc2)CC1 [Example 526, Hydrobromide of (R)-2-amino-2-(1-(2-(4-chloro-[1,1-biphenyl]-2-yl)ethyl)piperidin-4-yl)-1-(4-(cyclohexylmethyl)piperazin-1-yl)ethan-1-one] | – | – | – | – | – | B (25 μM<EC99≤100 μM) | B (25 μM<EC99≤100 μM) | A (12.5 μM<EC99≤25 μM) | A (12.5 μM<EC99≤25 μM) | A (12.5 μM<EC99≤25 μM)
CCOc1ccc(O)c(F)c1CN1CCN(C(=O)[C@H](N)C2CCN(CCc3cc(Cl)ccc3-c3ccccc3)CC2)CC1 [Example 104, hydrochloride of (R)-2-amino-2-(1-(2-(4-chloro-[1,1′-biphenyl]-2-yl)ethyl)piperidin-4-yl)-1-(4-(6-ethoxy-2-fluoro-3-hydroxybenzyl)piperazin-1-yl)ethan-1-one] | A (12.5 μM<EC99≤25 μM) | B (25 μM<EC99≤100 μM) | A (12.5 μM<EC99≤25 μM) | S (EC99≤12.5 μM) | S (EC99≤12.5 μM) | – | – | – | – | –
CCSc1ccc(O)cc1CN1CCN(C(=O)[C@H](N)C2CCN(CCc3cc(Cl)ccc3-c3ccccc3)CC2)CC1 [Example 589, (R)-2-amino-2-(1-(2-(4-chloro-[1,1′-biphenyl]-2-yl)ethyl)piperidin-4-yl)-1-(4-(2-(ethylthio)-5-hydroxybenzyl)piperazin-1-yl)ethan-1-one] | – | – | – | – | – | S (EC99≤12.5 μM) | S (EC99≤12.5 μM) | S (EC99≤12.5 μM) | S (EC99≤12.5 μM) | S (EC99≤12.5 μM)
CCOc1cccc(F)c1CN1CCN(C(=O)[C@H](N)C2CCN(CCc3cc(Cl)ccc3-c3cc(N)cc(F)c3)CC2)CC1 [Example 558, Hydrobromide of (R)-2-amino-2-(1-(2-(3′-amino-4-chloro-5′-fluoro-[1,1-biphenyl]-2-yl)ethyl)piperidin-4-yl)-1-(4-(2-ethoxy-6-fluorobenzyl)piperazin-1-yl)ethan-1-one] | – | – | – | – | – | A (12.5 μM<EC99≤25 μM) | S (EC99≤12.5 μM) | A (12.5 μM<EC99≤25 μM) | S (EC99≤12.5 μM) | S (EC99≤12.5 μM)
CCSc1cc(F)ccc1CN1CCN(C(=O)[C@H](N)C2CCN(CCc3cc(Cl)ccc3-c3ccccc3F)CC2)CC1 [Example 598, Hydrochloride of (R)-2-amino-2-(1-(2-(4-chloro-2′-fluoro-[1,1-biphenyl]-2-yl)ethyl)piperidin-4-yl)-1-(4-(2-(ethylthio)-4-fluorobenzyl)piperazin-1-yl) ethan-1-one] | – | – | – | – | – | S (EC99≤12.5 μM) | S (EC99≤12.5 μM) | S (EC99≤12.5 μM) | A (12.5 μM<EC99≤25 μM) | S (EC99≤12.5 μM)
CCOc1cccc(F)c1CN1CCN(C(=O)[C@H](N)C2CCN(CCc3cc(OC(F)(F)F)ccc3-c3ccccc3Cl)CC2)CC1 [Example 86, Hydrobromide of (R)-2-amino-2-(1-(2-(2′-chloro-4-(trifluoromethoxy)-[1,1′-biphenyl]-2-yl)ethyl)piperidin-4-yl)-1-(4-(2-ethoxy-6-fluorobenzyl)piperazin-1-yl)ethan-1-one] | B (25 μM<EC99≤100 μM) | B (25 μM<EC99≤100 μM) | B (25 μM<EC99≤100 μM) | B (25 μM<EC99≤100 μM) | B (25 μM<EC99≤100 μM) | – | – | – | – | –
CCOc1cccc(F)c1CN1CCN(C(=O)[C@H](N)C2CCN(CCc3cc(Cl)ccc3-c3cc(N)ccc3F)CC2)CC1 [Example 559, Hydrobromide of (R)-2-amino-2-(1-(2-(5′-amino-4-chloro-2′-fluoro-[1,1-biphenyl]-2-yl)ethyl)piperidin-4-yl)-1-(4-(2-ethoxy-6-fluorobenzyl)piperazin-1-yl)ethan-1-one] | – | – | – | – | – | S (EC99≤12.5 μM) | S (EC99≤12.5 μM) | S (EC99≤12.5 μM) | A (12.5 μM<EC99≤25 μM) | S (EC99≤12.5 μM)
N[C@@H](C(=O)N1CCN(Cc2ccccc2C2CC2)CC1)C1CCN(CCc2cc(Cl)ccc2-c2ccccc2)CC1 [Example 507, Hydrobromide of (R)-2-amino-2-(1-(2-(4-chloro-[1,1-biphenyl]-2-yl)ethyl)piperidin-4-yl)-1-(4-(2-cyclopropylbenzyl)piperazin-1-yl)ethan-1-one] | – | – | – | – | – | B (25 μM<EC99≤100 μM) | B (25 μM<EC99≤100 μM) | B (25 μM<EC99≤100 μM) | B (25 μM<EC99≤100 μM) | B (25 μM<EC99≤100 μM)

Source: US20250326744A1, “PIPERAZINE DERIVATIVE OR SALT THEREOF, AND PHARMACEUTICAL COMPOSITION” (priority 2022, published 2025)
